Measured values from ChEMBL document CHEMBL4725390, “Asymmetrically Substituted Quadruplex-Binding Naphthalene Diimide Showing Potent Activity in Pancreatic Cancer Models” (ACS Med Chem Lett, 2020).
Active and inactive are the calls of the source. No cut-off for these calls is given here.

Columns and labels:
[1] = system: Quadruplex DNA; assay: Binding affinity to G4 quadruplex DNA in human PANC1 cells assessed as BG4 foci formation at 800 nM after 6 hrs by immunofluorescence based confocal microscopic analysis; type: cell-based; conditions: PANC-1
[2] = Volume of distribution at steady state in mouse xenografted with human MIAPaCa2 cells at 0.96 mg/kg, iv administered as single dose; type: ADME, organism-based; conditions: in vivo, read-out: Vdss
[3] = system: MIA PaCa-2; assay: Antitumor activity against human MIAPaCa2 cells xenografted in mouse assessed as change in tumor volume at 15 mg/kg, iv administered twice per week for 28 days and measured at day 53 by Caliper method relative to control; type: functional; conditions: time 28 day
[4] = Antitumor activity in KPC-induced PDAC mouse model expressing active KRASG12D and mutant p53R172H assessed as median survival time at 1 mg/kg, iv administered once per week up to 3 weeks (reference value: 12 days); type: functional
[5] = system: MIA PaCa-2; assay: Downregulation of hippo signaling pathway related gene expression in human MIAPaCa2 cells at 40 nM after 6 hrs by RNA sequencing analysis; type: functional, cell-based
[6] = system: MIA PaCa-2; assay: Downregulation of TNF signaling pathway related gene expression in human MIAPaCa2 cells at 40 nM after 6 hrs by RNA sequencing analysis; type: functional, cell-based
[7] = system: Mus musculus; assay: Down regulation of MAPK11 expression in mouse xenografted with human MIAPaCa2 cells at 1 mg/kg, iv administered twice per week for 28 days and measured on day 28 by Western blot analysis; type: functional, organism-based; conditions: time 28.0 day
[8] = Downregulation of GLI1 mRNA expression in human MIAPaCa2 cells at 40 nM after 24 hrs by RNA sequencing analysis relative to control; type: functional, MIA PaCa-2
[9] = AUC in mouse xenografted with human MIAPaCa2 cells at 0.96 mg/kg, iv administered as single dose; type: ADME, organism-based; set-up: dose 0.96 mg/kg; conditions: in vivo
[10] = Downregulation of hTERT mRNA expression in human MIAPaCa2 cells at 40 nM after 6 hrs by RNA sequencing analysis relative to control; type: functional, MIA PaCa-2
[11] = system: MIA PaCa-2; assay: Downregulation of Wnt signaling pathway related gene expression in human MIAPaCa2 cells at 40 nM after 6 hrs by RNA sequencing analysis; type: functional, cell-based
[12] = system: CAPAN-1; assay: Potency index, ratio of 2,7-bis(3-morpholinopropyl)-4-((2-(pyrrolidin-1-yl)ethyl)amino)benzo[lmn][3,8]phenanthroline-1,3,6,8(2H,7H)-tetraone IC50 to test compound IC50 for human Capan1 cells measured after 96 hrs by SRB assay; type: functional
[13] = AUC (infinity) in mouse xenografted with human MIAPaCa2 cells at 0.96 mg/kg, iv administered as single dose; type: ADME, organism-based; set-up: time infinity, route intravenous, dose 0.96 mg/kg; conditions: in vivo
[14] = Downregulation of Bcl2 mRNA expression in human MIAPaCa2 cells at 40 nM after 24 hrs by RNA sequencing analysis relative to control; type: functional, MIA PaCa-2
[15] = system: MIA PaCa-2; assay: Antitumor activity against human MIAPaCa2 cells xenografted in mouse assessed as change in tumor volume at 1 mg/kg, iv administered twice per week for 28 days and measured at day 53 by Caliper method relative to control; type: functional; conditions: time 28 day
[16] = system: MIA PaCa-2; assay: Antitumor activity against human MIAPaCa2 cells xenografted in mouse assessed as change in tumor volume at 1 mg/kg, iv administered once per week for 28 days and measured at day 28 by Caliper method relative to control; type: functional; conditions: time 28 day
[17] = system: Mus musculus; assay: Up regulation of cleaved PARP protein expression in mouse xenografted with human MIAPaCa2 cells at 1 mg/kg, iv administered once per week for 28 days measured on day 28 by Western blot analysis; type: functional, organism-based; conditions: time 28.0 day
[18] = system: MIA PaCa-2; assay: Antitumor activity against human MIAPaCa2 cells xenografted in mouse assessed as mean tumor volume at 1 mg/kg, iv administered twice per week for 28 days and measured at day 28 by Caliper method (reference value: 0.45 +/- 0.18 cm3); type: functional; conditions: time 28 day
[19] = Half life in rat at 1 mg/kg, iv administered as single dose; type: ADME, organism-based; conditions: in vivo
[20] = system: MIA PaCa-2; assay: Antitumor activity against human MIAPaCa2 cells xenografted in mouse assessed as mean tumor volume at 1 mg/kg, iv administered once per week for 28 days and measured at day 28 by Caliper method (reference value: 0.45 +/- 0.18 cm3); type: functional; conditions: time 28 day
[21] = system: MIA PaCa-2; assay: Downregulation of Rap1 signaling pathway related gene expression in human MIAPaCa2 cells at 40 nM after 24 hrs by RNA sequencing analysis; type: functional, cell-based
[22] = Downregulation of AXIN1 mRNA expression in human MIAPaCa2 cells at 40 nM after 24 hrs by RNA sequencing analysis relative to control; type: functional, MIA PaCa-2
[23] = Cmax in mouse xenografted with human MIAPaCa2 cells at 0.96 mg/kg, iv administered as single dose; type: ADME, organism-based; set-up: route intravenous, dose 0.96 mg/kg; conditions: in vivo
[24] = system: MIA PaCa-2; assay: Antitumor activity against human MIAPaCa2 cells xenografted in mouse assessed as change in tumor volume at 1 mg/kg, iv administered twice per week for 28 days and measured at day 28 by Caliper method relative to control; type: functional; conditions: time 28 day
[25] = system: MIA PaCa-2; assay: Antitumor activity against human MIAPaCa2 cells xenografted in mouse assessed as mean tumor volume at 1 mg/kg, iv administered twice per week for 28 days and measured at day 53 by Caliper method (reference value: 1.60 +/- 0.44 cm3); type: functional; conditions: time 28 day
[26] = system: MIA PaCa-2; assay: Antitumor activity against human MIAPaCa2 cells xenografted in mouse assessed as change in tumor volume at 1 mg/kg, iv administered once per week for 28 days and measured at day 53 by Caliper method relative to control; type: functional; conditions: time 28 day
[27] = system: CAPAN-1; assay: Antiproliferative activity against human Capan1 cells assessed as growth inhibition after 96 hrs by SRB assay; type: functional
[28] = Apparent volume of distribution in mouse xenografted with human MIAPaCa2 cells at 0.96 mg/kg, iv administered as single dose; type: ADME, organism-based; conditions: in vivo, read-out: Vz
[29] = system: Mus musculus; assay: Up regulation of cleaved PARP protein expression in mouse xenografted with human MIAPaCa2 cells at 1 mg/kg, iv administered twice per week for 28 days measured on day 28 by Western blot analysis; type: functional, organism-based; conditions: time 28.0 day
[30] = Downregulation of WNT5B mRNA expression in human MIAPaCa2 cells at 40 nM after 6 hrs by RNA sequencing analysis relative to control; type: functional, MIA PaCa-2
[31] = system: Mus musculus; assay: Effect on hTERT expression in mouse xenografted with human MIAPaCa2 cells at 1 mg/kg, iv administered once per week for 28 days and measured on day 28 by Western blot analysis; type: functional, organism-based; conditions: time 28.0 day
[32] = Downregulation of GLI1 mRNA expression in human MIAPaCa2 cells at 40 nM after 6 hrs by RNA sequencing analysis relative to control; type: functional, MIA PaCa-2
[33] = system: MIA PaCa-2; assay: Downregulation of axon guidance related gene expression in human MIAPaCa2 cells at 40 nM after 24 hrs by RNA sequencing analysis; type: functional, cell-based
[34] = system: PANC-1; assay: Potency index, ratio of 2,7-bis(3-morpholinopropyl)-4-((2-(pyrrolidin-1-yl)ethyl)amino)benzo[lmn][3,8]phenanthroline-1,3,6,8(2H,7H)-tetraone IC50 to test compound IC50 for human PANC1 cells measured after 96 hrs by SRB assay; type: functional
[35] = Downregulation of MAPK11 mRNA expression in human MIAPaCa2 cells at 40 nM after 6 hrs by RNA sequencing analysis relative to control; type: functional, MIA PaCa-2

O=C1c2cc(-c3ccc(CN4CCCC4)cc3)c3c4c(cc(NCCN5CCCC5)c(c24)C(=O)N1CCCN1CCOCC1)C(=O)N(CCCN1CCOCC1)C3=O [QN-302]
Activity [1]: inactive | Vd [2]: 1.2 L/kg | Activity [3]: -78.1% | MST [4]: 24 days | inhibition [5]: Active | inhibition [6]: Active | inhibition [7]: Active | log2FC [8]: 1.84 | AUC [9]: 5860 ng·h/mL | log2FC [10]: 2.29 | inhibition [11]: Active | Ratio IC50 [12]: 5 | AUC(0-inf) [13]: 8270 ng·h/mL | log2FC [14]: 1.75 | Activity [15]: -90.6% | Activity [16]: -82.2% | Activity [17]: Active | Activity [18]: 0.06 cm3 | half-life [19]: 36 h | Activity [20]: 0.08 cm3 | inhibition [21]: Active | log2FC [22]: 0.39 | Cmax [23]: 4180 ng/mL | Activity [24]: -86.6% | Activity [25]: 0.15 cm3 | Activity [26]: -89.83% | GI50 [27]: 5.9 nM | Vd [28]: 6.9 L/kg | Activity [29]: Active | log2FC [30]: 2.25 | Activity [31]: inactive | log2FC [32]: 0.66 | inhibition [33]: Active | Ratio IC50 [34]: 10 | log2FC [35]: 0.71
